Test results taken from patent US7854753B2, “Photokinetic delivery of biologically active substances using pulsed incoherent light” (Photokinetix, Inc., priority 2002, dated 2010).

Assay: Franz skin diffusion cell permeation (percutaneous absorption) under ambient, natural or pulsed incoherent LED light
Conditions: for Permeation Dark: ambient light absent; for Permeation Ctrl: ambient cool fluorescent light only, 260-750 nm, 120 cps; for Permeation Ctrl-TiO2: ambient fluorescent light, sample with 2% (w/w) rutile TiO2; for 405/1.7 / 405/9.7 / 405/24: Table 10; for Ctrl: ambient light only
[1] = 350 + TiO2, 24 cps vs Dark-TiO2
[2] = 350 + TiO2, 80 cps vs Dark-TiO2
[3] = 390 + TiO2, 24 cps vs Dark-TiO2
[4] = 390 + TiO2, 80 cps vs Dark-TiO2
[5] = 405 + TiO2, 24 cps vs Dark-TiO2
[6] = 405 + TiO2, 80 cps vs Dark-TiO2
[7] = 450 + TiO2, 24 cps vs Dark-TiO2
[8] = 450 + TiO2, 80 cps vs Dark-TiO2
[9] = Dark-TiO2 control (2% TiO2), 24 cps series
[10] = Dark-TiO2 control (2% TiO2), 80 cps series
[11] = Day (natural daylight, not pulsed), control of the 24 cps series
[12] = Day (natural daylight, not pulsed), control of the 80 cps series
[13] = Day-TiO2 (natural daylight, 2% TiO2, not pulsed), control of the 24 cps series
[14] = Day-TiO2 (natural daylight, 2% TiO2, not pulsed), control of the 80 cps series
[15] = Day-TiO2 vs Dark-TiO2, 24 cps series
[16] = Day-TiO2 vs Dark-TiO2, 80 cps series

SMILES: Cn1c(=O)c2c(ncn2C)n(C)c1=O [Compound 9, Caffeine]
- Permeation Dark (Dark control): 269.40 μg/0.64 cm^2/25 hrs
- Permeation Ctrl: 168.70 μg/0.64 cm^2/25 hrs
- Permeation Ctrl-TiO2: 47.22 μg/0.64 cm^2/25 hrs

SMILES: CC(C)[C@H](N)C(=O)N[C@@H](Cc1ccc(O)cc1)C(=O)N[C@H](C(=O)O)C(C)C [Compound 12, Val-Tyr-Val]
- % Permeation (percent increase or decrease vs dark baseline, equation 1) [1]: 66.64%
- % Permeation (percent increase or decrease vs dark baseline, equation 1) [2]: 65.49%
- Permeation (350 + TiO2, pulse rate 24 cps): 18.98 μg/cm^2/24 hrs
- Permeation (350 + TiO2, pulse rate 80 cps): 16.45 μg/cm^2/24 hrs
- Permeation (350 nm LED, pulse rate 24 cps): 22.69 μg/cm^2/24 hrs
- Permeation (350 nm LED, pulse rate 80 cps): 17.41 μg/cm^2/24 hrs
- % Permeation (percent increase or decrease vs dark baseline, equation 1) (350 nm, 24 cps vs Dark): 50.96%
- % Permeation (percent increase or decrease vs dark baseline, equation 1) (350 nm, 80 cps vs Dark): 94.09%
- % Permeation (percent increase or decrease vs dark baseline, equation 1) [3]: 11.76%
- % Permeation (percent increase or decrease vs dark baseline, equation 1) [4]: 95.88%
- Permeation (390 + TiO2, pulse rate 24 cps): 12.73 μg/cm^2/24 hrs
- Permeation (390 + TiO2, pulse rate 80 cps): 19.47 μg/cm^2/24 hrs
- Permeation (390 nm LED, pulse rate 24 cps): 21.47 μg/cm^2/24 hrs
- Permeation (390 nm LED, pulse rate 80 cps): 18.70 μg/cm^2/24 hrs
- % Permeation (percent increase or decrease vs dark baseline, equation 1) (390 nm, 24 cps vs Dark): 42.85%
- % Permeation (percent increase or decrease vs dark baseline, equation 1) (390 nm, 80 cps vs Dark): 108.47%
- % Permeation (percent increase or decrease vs dark baseline, equation 1) [5]: −44.16%
- % Permeation (percent increase or decrease vs dark baseline, equation 1) [6]: 101.11%
- Permeation (405 + TiO2, pulse rate 24 cps): 6.36 μg/cm^2/24 hrs
- Permeation (405 + TiO2, pulse rate 80 cps): 19.99 μg/cm^2/24 hrs
- Permeation (405 nm LED, pulse rate 24 cps): 12.32 μg/cm^2/24 hrs
- Permeation (405 nm LED, pulse rate 80 cps): 19.89 μg/cm^2/24 hrs
- % Permeation (percent increase or decrease vs dark baseline, equation 1) (405 nm, 24 cps vs Dark): −18.03%
- % Permeation (percent increase or decrease vs dark baseline, equation 1) (405 nm, 80 cps vs Dark): 121.74%
- % Permeation (percent increase or decrease vs dark baseline, equation 1) [7]: −33.98%
- % Permeation (percent increase or decrease vs dark baseline, equation 1) [8]: 48.29%
- Permeation (450 + TiO2, pulse rate 24 cps): 7.52 μg/cm^2/24 hrs
- Permeation (450 + TiO2, pulse rate 80 cps): 14.74 μg/cm^2/24 hrs
- Permeation (450 nm LED, pulse rate 24 cps): 9.51 μg/cm^2/24 hrs
- Permeation (450 nm LED, pulse rate 80 cps): 17.39 μg/cm^2/24 hrs
- % Permeation (percent increase or decrease vs dark baseline, equation 1) (450 nm, 24 cps vs Dark): −36.73%
- % Permeation (percent increase or decrease vs dark baseline, equation 1) (450 nm, 80 cps vs Dark): 93.87%
- Permeation Dark (Dark control): 37.24 μg/0.64 cm^2/25 hrs
- Permeation (Dark control, 24 cps series): 15.03 μg/cm^2/24 hrs
- Permeation (Dark control, 80 cps series): 8.97 μg/cm^2/24 hrs
- Permeation [9]: 11.39 μg/cm^2/24 hrs
- Permeation [10]: 9.94 μg/cm^2/24 hrs
- Permeation [11]: 8.27 μg/cm^2/24 hrs
- Permeation [12]: 11.32 μg/cm^2/24 hrs
- % Permeation (percent increase or decrease vs dark baseline, equation 1) (Day vs Dark, 24 cps series): −44.98%
- % Permeation (percent increase or decrease vs dark baseline, equation 1) (Day vs Dark, 80 cps series): 26.20%
- Permeation [13]: 11.11 μg/cm^2/24 hrs
- Permeation [14]: 13.64 μg/cm^2/24 hrs
- % Permeation (percent increase or decrease vs dark baseline, equation 1) [15]: −2.55%
- % Permeation (percent increase or decrease vs dark baseline, equation 1) [16]: 37.22%
- 405/1.7 (405 nm, 1.7 cps): 23.21
- 405/9.7 (405 nm, 9.7 cps): 91.68
- 405/24 (405 nm, 24 cps): 48.83
- Ctrl (Table 10 peptides): 35.26
- Permeation Ctrl: 35.26 μg/0.64 cm^2/25 hrs
- Permeation Ctrl-TiO2: 41.18 μg/0.64 cm^2/25 hrs

SMILES: O=C1O[C@H]([C@@H](O)CO)C([O-])=C1OP(=O)([O-])[O-].[Na+].[Na+].[Na+] [Compound 2, Sodium ascorbyl phosphate]
- Ctrl (Table 7 (350 nm series)): 0.00
- Ctrl-TiO2 (Table 7 (350 nm series), ambient light, 2% TiO2): 0.00
- Ctrl-TiO2/1.7 (Table 7, 350 nm series, 2% TiO2, 1.7 cps): 42.75
- Ctrl-TiO2/9.7 (Table 7, 350 nm series, 2% TiO2, 9.7 cps): 6.48
- Ctrl-TiO2/24 (Table 7, 350 nm series, 2% TiO2, 24 cps): 0.00
- 350/1.7 (Table 7, 350 nm, 1.7 cps): 3.33
- 350/9.7 (Table 7, 350 nm, 9.7 cps): 0.00
- 350/24 (Table 7, 350 nm, 24 cps): 0.00

SMILES: CC(C)C[C@H](NC(=O)[C@H](Cc1ccccc1)NC(=O)CNC(=O)CNC(=O)[C@@H](N)Cc1ccc(O)cc1)C(=O)O [Compound 14, Leucine Enkephalin (Tyr-Gly-Gly-Phe-Leu)]
- % Permeation (percent increase or decrease vs dark baseline, equation 1) [1]: 8.58%
- % Permeation (percent increase or decrease vs dark baseline, equation 1) [2]: 39.43%
- Permeation (350 + TiO2, pulse rate 24 cps): 73.17 μg/cm^2/24 hrs
- Permeation (350 + TiO2, pulse rate 80 cps): 28.50 μg/cm^2/24 hrs
- Permeation (350 nm LED, pulse rate 24 cps): 84.44 μg/cm^2/24 hrs
- Permeation (350 nm LED, pulse rate 80 cps): 31.30 μg/cm^2/24 hrs
- % Permeation (percent increase or decrease vs dark baseline, equation 1) (350 nm, 24 cps vs Dark): −21.59%
- % Permeation (percent increase or decrease vs dark baseline, equation 1) (350 nm, 80 cps vs Dark): 72.36%
- % Permeation (percent increase or decrease vs dark baseline, equation 1) [3]: 54.21%
- % Permeation (percent increase or decrease vs dark baseline, equation 1) [4]: 55.14%
- Permeation (390 + TiO2, pulse rate 24 cps): 103.92 μg/cm^2/24 hrs
- Permeation (390 + TiO2, pulse rate 80 cps): 31.71 μg/cm^2/24 hrs
- Permeation (390 nm LED, pulse rate 24 cps): 108.49 μg/cm^2/24 hrs
- Permeation (390 nm LED, pulse rate 80 cps): 31.32 μg/cm^2/24 hrs
- % Permeation (percent increase or decrease vs dark baseline, equation 1) (390 nm, 24 cps vs Dark): 0.74%
- % Permeation (percent increase or decrease vs dark baseline, equation 1) (390 nm, 80 cps vs Dark): 72.47%
- % Permeation (percent increase or decrease vs dark baseline, equation 1) [5]: 322.29%
- % Permeation (percent increase or decrease vs dark baseline, equation 1) [6]: −35.47%
- Permeation (405 + TiO2, pulse rate 24 cps): 284.58 μg/cm^2/24 hrs
- Permeation (405 + TiO2, pulse rate 80 cps): 13.19 μg/cm^2/24 hrs
- Permeation (405 nm LED, pulse rate 24 cps): 87.52 μg/cm^2/24 hrs
- Permeation (405 nm LED, pulse rate 80 cps): 20.82 μg/cm^2/24 hrs
- % Permeation (percent increase or decrease vs dark baseline, equation 1) (405 nm, 24 cps vs Dark): −18.73%
- % Permeation (percent increase or decrease vs dark baseline, equation 1) (405 nm, 80 cps vs Dark): 14.65%
- % Permeation (percent increase or decrease vs dark baseline, equation 1) [7]: 158.04%
- % Permeation (percent increase or decrease vs dark baseline, equation 1) [8]: 45.45%
- Permeation (450 + TiO2, pulse rate 24 cps): 173.89 μg/cm^2/24 hrs
- Permeation (450 + TiO2, pulse rate 80 cps): 29.73 μg/cm^2/24 hrs
- Permeation (450 nm LED, pulse rate 24 cps): 29.25 μg/cm^2/24 hrs
- Permeation (450 nm LED, pulse rate 80 cps): 21.81 μg/cm^2/24 hrs
- % Permeation (percent increase or decrease vs dark baseline, equation 1) (450 nm, 24 cps vs Dark): −72.84%
- % Permeation (percent increase or decrease vs dark baseline, equation 1) (450 nm, 80 cps vs Dark): 20.10%
- Permeation Dark (Dark control): 41.68 μg/0.64 cm^2/25 hrs
- Permeation (Dark control, 24 cps series): 107.69 μg/cm^2/24 hrs
- Permeation (Dark control, 80 cps series): 18.16 μg/cm^2/24 hrs
- Permeation [9]: 67.39 μg/cm^2/24 hrs
- Permeation [10]: 20.44 μg/cm^2/24 hrs
- Permeation [11]: 37.31 μg/cm^2/24 hrs
- Permeation [12]: 20.89 μg/cm^2/24 hrs
- % Permeation (percent increase or decrease vs dark baseline, equation 1) (Day vs Dark, 24 cps series): −65.35%
- % Permeation (percent increase or decrease vs dark baseline, equation 1) (Day vs Dark, 80 cps series): 15.03%
- Permeation [13]: 46.85 μg/cm^2/24 hrs
- Permeation [14]: 18.64 μg/cm^2/24 hrs
- % Permeation (percent increase or decrease vs dark baseline, equation 1) [15]: −30.48%
- % Permeation (percent increase or decrease vs dark baseline, equation 1) [16]: −8.81%
- 405/1.7 (405 nm, 1.7 cps): 40.38
- 405/9.7 (405 nm, 9.7 cps): 1.23
- 405/24 (405 nm, 24 cps): 0.00
- Ctrl (Table 10 peptides): 0.00
- Permeation Ctrl: 0.00 μg/0.64 cm^2/25 hrs
- Permeation Ctrl-TiO2: 0.00 μg/0.64 cm^2/25 hrs
